Legend:
[1] = system: N87 (human gastric carcinoma derived from metastatic liver site); test: Cytotoxicity assay for payloads (MTS), N87 cells; format: cell-based; conditions: Homo sapiens, 96 h; N87 cells, incubated with compounds for four days, MTS absorbance 490 nm; read-out: N87 IC50
Method: (§1) Cancer cell lines were obtained from ATCC (Manassas, Va.). N87 (human gastric carcinoma derived from metastatic liver site). HL60 (leukemia), A375 (melanoma) and HUVEC (human umbilical vein endothelial cells). were grown in RPMI 1640 media. All media were supplemented with 10% fetal bovine serum, 1% sodium pyruvate, and 1% L-glutamine (Invitrogen, Grand Island, N.Y.). Human umbilical vein endothelial cells (HUVEC) were obtained from Lonza (Allendale, N.J.) and maintained in EGM2 media supplemented with EGM-2 SingleQuots (Lonza # CC-4176). All cells were maintained in a humidified incubator (37° C., 5% CO2).
(§2) Cells in 100 μl medium were cultured in a 96-well plate. Cancer cell lines treated with the indicated compounds by adding 50 μl of 3× stocks in duplicate at 10 concentrations. Cells were incubated with compounds for four days, then 30 μl of CellTiter® 96 AQueous One MTS Solution (Promega Cat # G3582) was added to the cells, incubated 1.5 hr at 37° C., then absorbance measured at 490 nm on a Victor plate reader (Perkin Elmer, Waltham, Mass.). Relative cell viability was determined as a percentage of untreated control wells. IC50 values were calculated using four parameter logistic model #203 with XLfit v4.2 (IDBS, Guildford, Surry, UK).

HL60 (leukemia) = test: Cytotoxicity assay for payloads (MTS), HL-60 cells; format: cell-based; conditions: Homo sapiens, 96 h, incubated with compounds for four days, MTS absorbance 490 nm
Method: as §1, §2

Structure (SMILES)	IC50 [1]	IC50 (HL60 (leukemia))
O=C1C=C2N(C(=O)c3ccc(C(=O)N4C[C@H]5C[C@@]56C4=CC(=O)c4ccccc46)s3)C[C@H]3C[C@@]23c2ccccc21 [Compound 136, (1aS,9bR,1a′S,9b′R)-3,3′-(thiene-2,5-diyldicarbonyl)bis(1,1a,2,3-tetrahydro-5H-benzo[e]cyclopropa[c]indol-5-one)]	0.003 nM	0.005 nM
O=C(CCSCCC(=O)N1C[C@@H](CCl)c2c1cc(O)c1ccccc21)N1C[C@@H](CCl)c2c1cc(O)c1ccccc21 [Compound 23, (S)-3,3′-thiobis(1-((S)-1-(chloromethyl)-5-hydroxy-1H-benzo[e]indol-3(2H)-yl)propan-1-one)]	0.252 nM	0.072 nM
CC(=O)Oc1cc2c(c3ccccc13)[C@H](CCl)CN2C(=O)Cc1cccc(CC(=O)N2C[C@@H](CCl)c3c2cc(OC(C)=O)c2ccccc32)c1 [Compound 177, benzene-1,3-diylbis[(1-oxoethane-2,1-diyl)(1S)-1-(chloromethyl)-1,2-dihydro-3H-benzo[e]indole-3,5-diyl] diacetate]	2.12 nM	0.196 nM
CC(=O)Oc1cc2c(c3ccccc13)[C@H](CCl)CN2C(=O)CC12CC(CC(=O)N3C[C@@H](CCl)c4c3cc(OC(C)=O)c3ccccc43)(C1)C2 [Compound 158, bicyclo[1.1.1]pentane-1,3-diylbis[(1-oxoethane-2,1-diyl)(1S)-1-(chloromethyl)-1,2-dihydro-3H-benzo[e]indole-3,5-diyl] diacetate]	14.3 nM	4.91 nM
O=C(c1ccc(C(=O)N2C[C@@H](CCl)c3c2cc(OP(=O)(O)O)c2ccccc32)s1)N1C[C@@H](CCl)c2c1cc(O)c1ccccc21 [Compound 171, (1S)-1-(chloromethyl)-3-[(5-{[(1S)-1-(chloromethyl)-5-hydroxy-1,2-dihydro-3H-benzo[e]indol-3-yl]carbonyl}thiophen-2-yl)carbonyl]-2,3-dihydro-1H-benzo[e]indol-5-yl dihydrogen phosphate]	1.55 nM	0.131 nM
Cc1c[nH]c2c(O)cc3c(c12)[C@H](CCl)CN3C(=O)CNCC(=O)N1C[C@@H](CCl)c2c1cc(O)c1[nH]cc(C)c21 [Compound 165, 2,2′-iminobis{1-[(1S)-1-(chloromethyl)-5-hydroxy-8-methyl-1,6-dihydropyrrolo[3,2-e]indol-3(2H)-yl]ethanone}]	8.26 nM	0.107 nM
CC(=O)Nc1ccc2c(OC(C)=O)cc3c(c2c1)[C@@H](CCl)CN3C(=O)C12CC(C(=O)N3C[C@@H](CCl)c4c3cc(OC(C)=O)c3ccccc43)(C1)C2 [Compound 108, (1R)-8-(acetylamino)-3-[(3-{[(1S)-5-(acetyloxy)-1-(chloromethyl)-1,2-dihydro-3H-benzo[e]indol-3-yl]carbonyl}bicyclo[1.1.1]pent-1-yl)carbonyl]-1-(chloromethyl)-1,2-dihydro-3H-benzo[e]indol-5-yl acetate]	3.98 nM	0.431 nM
O=C(c1ccc(C(=O)N2C[C@@H](CCl)c3c2cc(O)c2ccccc32)o1)N1C[C@@H](CCl)c2c1cc(O)c1ccccc21 [Compound 13, (S)-furan-2,5-diylbis(((S)-1-(chloromethyl)-5-hydroxy-1H-benzo[e]indol-3(2H)-yl)methanone)]	0.138 nM	0.014 nM
CC(=O)Oc1cc2c(c3ccccc13)[C@H](CCl)CN2C(=O)C12CCC(C(=O)N3C[C@@H](CCl)c4c3cc(OC(C)=O)c3ccccc43)(CC1)CC2 [Compound 159, bicyclo[2.2.2]octane-1,4-diylbis[carbonyl(1S)-1-(chloromethyl)-1,2-dihydro-3H-benzo[e]indole-3,5-diyl] diacetate]	2.39 nM	0.045 nM
CC(=O)Oc1cc2c(c3ccccc13)[C@H](CCl)CN2C(=O)Cc1cc(CC(=O)N2C[C@@H](CCl)c3c2cc(OC(C)=O)c2ccccc32)cc([N+](=O)[O-])c1 [Compound 178, (5-nitrobenzene-1,3-diyl)bis[(1-oxoethane-2,1-diyl)(1S)-1-(chloromethyl)-1,2-dihydro-3H-benzo[e]indole-3,5-diyl] diacetate]	0.484 nM	0.036 nM
CC(=O)Oc1cc2c(c3ccccc13)[C@H](CCl)CN2C(=O)CC1(CC(=O)N2C[C@@H](CCl)c3c2cc(OC(C)=O)c2ccccc32)CCCC1 [Compound 157, cyclopentane-1,1-diylbis[(1-oxoethane-2,1-diyl)(1S)-1-(chloromethyl)-1,2-dihydro-3H-benzo[e]indole-3,5-diyl] diacetate]	≥ 10 nM	77.4 nM
Nc1ccc(C(CC(=O)N2C[C@@H](CCl)c3c2cc(O)c2ccccc32)CC(=O)N2C[C@@H](CCl)c3c2cc(O)c2ccccc32)cc1 [Compound 48, 3-(4-Amino-phenyl)-1,5-bis-((S)-1-chloromethyl-5-hydroxy-1,2-dihydro-benzo[e]indol-3-yl)-pentane-1,5-dione]	12.2 nM	1.75 nM
CC(=O)Oc1cc2c(c3ccccc13)[C@H](CCl)CN2C(=O)CC1(CC(=O)N2C[C@@H](CCl)c3c2cc(OC(C)=O)c2ccccc32)CCC1 [Compound 156, cyclobutane-1,1-diylbis[(1-oxoethane-2,1-diyl)(1S)-1-(chloromethyl)-1,2-dihydro-3H-benzo[e]indole-3,5-diyl] diacetate]	≥ 10 nM	61.1 nM
CC(=O)Oc1cc2c(c3ccccc13)[C@H](CCl)CN2C(=O)c1ccc(C(=O)N2C[C@@H](CCl)c3c2cc(N)c2ccccc32)s1 [Compound 115, Acetic acid (S)-3-[5-((S)-5-amino-1-chloromethyl-1,2-dihydro-benzo[e]indole-3-carbonyl)-thiophene-2-carbonyl]-1-chloromethyl-2,3-dihydro-1H-benzo[e]indol-5-yl ester]	1.44 nM	0.015 nM
COc1c(C(=O)N2C[C@@H](CCl)c3c2cc(OC(C)=O)c2ccccc32)sc(C(=O)N2C[C@@H](CCl)c3c2cc(OC(C)=O)c2ccccc32)c1OC [Compound 143, (3,4-dimethoxythiene-2,5-diyl)bis[carbonyl(1S)-1-(chloromethyl)-1,2-dihydro-3H-benzo[e]indole-3,5-diyl] diacetate]	≥ 100 nM	≥ 10 nM
Nc1cccc(C(CC(=O)N2C[C@@H](CCl)c3c2cc(O)c2ccccc32)CC(=O)N2C[C@@H](CCl)c3c2cc(O)c2ccccc32)c1 [Compound 44, 3-(3-Amino-phenyl)-1,5-bis-((S)-1-chloromethyl-5-hydroxy-1,2-dihydro-benzo[e]indol-3-yl)-pentane-1,5-dione]	≥ 10 nM	5.29 nM
Cc1c[nH]c2c(O)cc3c(c12)[C@H](CCl)CN3C(=O)C12CC(C(=O)N3C[C@@H](CCl)c4c3cc(O)c3ccccc43)(C1)C2 [Compound 154, [(1S)-1-(chloromethyl)-5-hydroxy-1,2-dihydro-3H-benzo[e]indol-3-yl](3-{[(1S)-1-(chloromethyl)-5-hydroxy-8-methyl-1,6-dihydropyrrolo[3,2-e]indol-3(2H)-yl]carbonyl}bicyclo[1.1.1]pent-1-yl)methanone]	0.026 nM	0.003 nM
O=C(N1C[C@@H](CCl)c2c1cc(O)c1ccccc21)C12CC(C(=O)N3C[C@@H](CCl)c4c3cc(OP(=O)(O)O)c3ccccc43)(C1)C2 [Compound 163, (1S)-1-(chloromethyl)-3-[(3-{[(1S)-1-(chloromethyl)-5-hydroxy-1,2-dihydro-3H-benzo[e]indol-3-yl]carbonyl}bicyclo[1.1.1]pent-1-yl)carbonyl]-2,3-dihydro-1H-benzo[e]indol-5-yl dihydrogen phosphate]	6.89 nM	0.179 nM
O=C([C@@H]1CNC[C@H](C(=O)N2C[C@@H](CCl)c3c2cc(O)c2ccccc32)C1)N1C[C@@H](CCl)c2c1cc(O)c1ccccc21 [Compound 174, (3R,5S)-piperidine-3,5-diylbis{[(1S)-1-(chloromethyl)-5-hydroxy-1,2-dihydro-3H-benzo[e]indol-3-yl]methanone}]	87.9 nM	1.97 nM
CC(=O)Oc1cc2c(c3ccccc13)[C@H](CCl)CN2C(=O)c1cc(C(=O)N2C[C@@H](CCl)c3c2cc(OC(C)=O)c2ccccc32)n(C)n1 [Compound 74, acetic acid (S)-3-[5-((S)-5-acetoxy-1-chloromethyl-1,2-dihydro-benzo[e]indole-3-carbonyl)-1-methyl-1H-pyrazole-3-carbonyl]-1-chloromethyl-2,3-dihydro-1H-benzo[e]indol-5-yl ester]	76.5 nM	7.49 nM
CC(=O)Oc1cc2c(c3ccccc13)[C@H](CCl)CN2C(=O)C12CC(C(=O)N3C[C@@H](CCl)c4c3cc(OC(C)=O)c3ccccc43)(C1)C2 [Compound 152, bicyclo[1.1.1]pentane-1,3-diylbis[carbonyl(1S)-1-(chloromethyl)-1,2-dihydro-3H-benzo[e]indole-3,5-diyl] diacetate]	0.278 nM	0.008 nM
CC(=O)Oc1cc2c(c3ccccc13)[C@H](CCl)CN2C(=O)C12CCC(C(=O)N3C[C@@H](CCl)c4c3cc(OC(C)=O)c3ccccc43)(C1)C2 [Compound 82, (1S,4S)-bicyclo[2.1.1]hexane-1,4-diylbis[carbonyl(1S)-1-(chloromethyl)-1,2-dihydro-3H-benzo[e]indole-3,5-diyl]diacetate]	3.24 nM	0.359 nM
